PubChem BioAssay (NCI)
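Exposure lasted 48 hours, with cells grown in 96-well plates and compounds tested at five concentrations. GI50 = concentration required for 50% inhibition of growth. TGI: concentration producing complete growth inhibition.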

What was measured:
Test in all cases: inhibition of tumour cell growth, NCI panel, 48 h
ACHN renal = test system: ACHN renal
HCT-15 colon = test system: HCT-15 colon
RPMI-8226 leukemia = test system: RPMI-8226 leukemia
MCF7 breast = test system: MCF7 breast
PC-3 prostate = test system: PC-3 prostate
RXF 393 renal = test system: RXF 393 renal
SR leukemia = test system: SR leukemia
HOP-62 NSCLC = test system: HOP-62 NSCLC
SN12C renal = test system: SN12C renal
BT-549 breast = test system: BT-549 breast

Compound | GI50 (ACHN renal) [µM] | TGI (ACHN renal) [µM] | GI50 (HCT-15 colon) [µM] | TGI (HCT-15 colon) [µM] | GI50 (RPMI-8226 leukemia) [µM] | TGI (RPMI-8226 leukemia) [µM] | GI50 (MCF7 breast) [µM] | TGI (MCF7 breast) [µM] | GI50 (PC-3 prostate) [µM] | TGI (PC-3 prostate) [µM] | GI50 (RXF 393 renal) [µM] | TGI (RXF 393 renal) [µM] | GI50 (SR leukemia) [µM] | TGI (SR leukemia) [µM] | GI50 (HOP-62 NSCLC) [µM] | TGI (HOP-62 NSCLC) [µM] | GI50 (SN12C renal) [µM] | TGI (SN12C renal) [µM] | GI50 (BT-549 breast) [µM] | TGI (BT-549 breast) [µM]
O=C1C(=O)c2c(nc3ccc(Br)cn23)-c2ccccc21 | 0.452 | 1.55 | 0.759 | 2.66 | 0.388 | 2.67 | 0.385 | 1.08 | 0.688 | 2.47 | 1.55 | 2.97 | 0.33 | 1.52 | 1.59 | 3.04 | 0.329 | 0.806 | 1.37 | 2.67
Cc1cc(O)ccc1C1=NN(c2ccc(S(C)(=O)=O)cc2)C(=O)CC1 | 37.8 | > 100 | 7.91 | > 100 | 25.6 | > 100 | 20.7 | > 100 | 14.8 | > 100 | 12.8 | > 100 | 3.39 | > 100 | 9.07 | > 100 | 7.18 | > 100 | 4.97 | > 100
Clc1ccc2c(c1)N(CCCN1CCCC1)c1ccccc1S2 | 4.86 | 17.9 | 3.72 | 13.5 | 7.4 | 24.3 | 3.22 | 13.6 | 4.38 | 16.1 | 3.47 | 12.1 | 2.01 | 4.91 | 12.6 | 26.6 | 11.7 | 27.3 | 11.8 | 24.4
NC(=O)c1ccc(NN=O)nc1 |  | > 100 |  | > 100 | > 100 | > 100 |  | > 100 |  | > 100 | > 100 | > 100 |  | > 100 |  | > 100 |  | > 100 |  | > 100
CS(=O)(=O)Nc1ccc(-c2cc(-c3ccccc3)cc(C(N)=O)c2N)cc1 | > 25 | > 25 | > 22.2 | > 25 | 18.4 | > 25 | > 20.5 | > 25 | 14.2 | > 25 | > 25 | > 25 | 16.5 | > 25 | > 25 | > 25 | > 25 | > 25 | > 25 | > 25
C[C@H](Nc1ncnc2nc[nH]c12)c1cc2ccc(F)cc2nc1-c1ccccn1 | 47.9 | > 100 | > 100 | > 100 | > 100 | > 100 | 28.4 | > 100 | 25 | > 100 | 4.26 | 59.2 | 33.4 | > 100 | > 57.8 | > 100 | 57.8 | > 100 | 36.2 | > 100
NC(N)=N/N=C/c1c(-c2cc(Cl)sc2Cl)nc2sccn12 | 0.703 | 1.41 | 1.01 | 2.87 | 0.744 | 1.61 | 0.843 | 2.05 | 1.55 | 6.15 | 3.52 | 13.7 | 1.35 | 2.68 | 2.07 | 7.24 | 0.642 | 1.41 | 1.14 | 2.55
C/C(=C\CCc1ccoc1)CC/C=C(\C)CCCN1CCOCC1 | 8.24 | 24.1 | 2.98 | 11.8 | 1.88 | 4.99 | 2.71 | 11.2 | 2.02 | 10.5 | 9.17 | 23.2 | 3.12 | 9.69 | 12.2 | 25.6 | 6.83 | 21 | 1.88 | 8.74
